Biological target: Complement factor D (Homo sapiens, UniProt P00746)
Test: Inhibition Assay
Method: Human Factor D (purified from human serum, Complement Technology, Inc.) at 80 nM final concentration is incubated with test compound at various concentrations for 5 minutes at room temperature in 50 mM Tris, 1M NaCl, pH 7.5. A synthetic substrate Z-L-Lys-SBzl and DTNB (Ellman's reagent) are added to final concentrations of 100 µM each. Absorbance at 405 nm (A405) is recorded at 30 second intervals for 30 minutes using a microplate spectrophotometer. IC50 values are calculated by nonlinear regression of complement Factor D reaction rates as a function of test compound concentration.

Chain of Complement factor D (P00746 whole entry): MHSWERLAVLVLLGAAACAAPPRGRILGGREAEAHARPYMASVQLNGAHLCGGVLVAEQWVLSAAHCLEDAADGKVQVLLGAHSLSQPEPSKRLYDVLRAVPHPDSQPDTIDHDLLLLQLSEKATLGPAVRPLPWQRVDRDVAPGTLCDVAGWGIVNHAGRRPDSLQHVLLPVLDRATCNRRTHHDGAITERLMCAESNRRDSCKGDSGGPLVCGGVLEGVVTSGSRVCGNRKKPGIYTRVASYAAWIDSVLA

Row | SMILES | IC50
1 | CC(=O)c1cn(CC(=O)N2C[C@H](F)C[C@H]2C(=O)NCc2cccc(Cl)c2F)c2cc(N(CC(=O)N3C[C@H](F)C[C@H]3C(=O)NCc3cccc(Cl)c3F)S(C)(=O)=O)ccc12 [US10660876, Cmpd No. 1] | in the range around 5.5 µM
2 | CC(=O)c1cn(CC(=O)N2C[C@H](F)C[C@H]2C(=O)NCc2nc3ccccc3s2)c2ccc(Nc3cncnc3)cc12 [US10660876, Cmpd No. 16] | in the range around 5.5 µM
3 | CNC(=O)[C@@H]1C[C@@H](F)CN1C(=O)Cn1cc(C(C)=O)c2cc(Nc3cncnc3)ccc21 [US10660876, Cmpd No. 20] | in the range around 5.5 µM
4 | CC(=O)c1cn(CC(=O)N2C[C@H](F)C[C@H]2C(=O)Nc2ccccc2-n2nccc2C)c2ccc(Nc3cncnc3)cc12 [US10660876, Cmpd No. 30] | in the range around 5.5 µM
5 | CC(=O)c1cn(CC(=O)N2C[C@H](F)C[C@H]2C(=O)Nc2ccccc2-c2nc3ccccc3s2)c2ccc(Nc3cncnc3)cc12 [US10660876, Cmpd No. 32] | > 10 µM
6 | CC(=O)c1cn(CC(=O)N2C[C@H](F)C[C@H]2C(=O)Nc2nnc(-c3ccccc3Cl)s2)c2ccc(Nc3cncnc3)cc12 [US10660876, Cmpd No. 34] | in the range around 5.5 µM
7 | CC(=O)c1cn(CC(=O)N2C[C@H](F)C[C@H]2C(=O)N[C@H]2CCCC[C@@H]2O)c2ccc(Nc3cncnc3)cc12 [US10660876, Cmpd No. 36] | in the range around 5.5 µM
8 | CC(=O)c1cn(CC(=O)N2C[C@H](F)C[C@H]2C(=O)Nc2cccc(Cl)c2-n2cncn2)c2ccc(Nc3cncnc3)cc12 [US10660876, Cmpd No. 37] | in the range around 5.5 µM
9 | CC(=O)c1cn(CC(=O)N2C[C@H](F)C[C@H]2C(=O)Nc2ccccc2N2CCOC2=O)c2ccc(Nc3cncnc3)cc12 [US10660876, Cmpd No. 40] | in the range around 5.5 µM
10 | CC(=O)c1cn(CC(=O)N2C[C@H](F)C[C@H]2C(=O)Nc2nc(-c3c(C)nc4sccn34)cs2)c2ccc(Nc3cncnc3)cc12 [US10660876, Cmpd No. 49] | in the range around 5.5 µM
11 | CC(=O)c1cn(CC(=O)N2C[C@H](F)C[C@H]2C(=O)NC2CCc3c(F)ccc(F)c32)c2ccc(Nc3cncnc3)cc12 (some centres undefined) [US10660876, Cmpd No. 51] | in the range around 5.5 µM
12 | CC(=O)c1cn(CC(=O)N2C[C@H](F)C[C@H]2C(=O)Nc2ccc(CN)cc2)c2ccc(Nc3cncnc3)cc12 [US10660876, Cmpd No. 53] | in the range around 5.5 µM
13 | COc1cc(C)cc2c1OCCC2NC(=O)[C@@H]1C[C@@H](F)CN1C(=O)Cn1cc(C(C)=O)c2cc(Nc3cncnc3)ccc21 (some centres undefined) [US10660876, Cmpd No. 54] | in the range around 5.5 µM
14 | CC(=O)c1cn(CC(=O)N2C[C@H](F)C[C@H]2C(=O)Nc2c[nH]nc2-c2ccc(Cl)cc2Cl)c2ccc(Nc3cncnc3)cc12 [US10660876, Cmpd No. 55] | in the range around 5.5 µM

Reference: BindingDB's records for patent US10660876 (Achillion Pharmaceuticals, 2020)
